Reference: patent US12195463B2 (priority 2018, dated 2025)

Legend:
[1] = target: SERT (Homo sapiens, UniProt P31645); experiment: biochemical; type: binding
[2] = target: D2 (Homo sapiens, UniProt P14416); conditions: qualitative statement
[3] = target: D1 (Homo sapiens, UniProt P21728); conditions: qualitative statement
Chain of D1 (P21728 whole entry): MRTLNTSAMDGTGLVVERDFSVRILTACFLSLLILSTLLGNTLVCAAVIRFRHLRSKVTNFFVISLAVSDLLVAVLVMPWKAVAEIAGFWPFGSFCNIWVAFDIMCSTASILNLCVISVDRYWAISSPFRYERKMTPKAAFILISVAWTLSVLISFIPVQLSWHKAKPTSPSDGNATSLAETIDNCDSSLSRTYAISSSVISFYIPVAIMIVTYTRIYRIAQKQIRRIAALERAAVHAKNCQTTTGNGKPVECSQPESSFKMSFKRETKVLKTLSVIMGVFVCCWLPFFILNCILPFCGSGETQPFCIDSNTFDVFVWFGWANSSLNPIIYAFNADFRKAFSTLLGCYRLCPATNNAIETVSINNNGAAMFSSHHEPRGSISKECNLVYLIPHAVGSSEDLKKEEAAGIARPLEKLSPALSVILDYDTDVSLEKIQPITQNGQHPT

Chain of SERT (P31645 whole entry, species assumed): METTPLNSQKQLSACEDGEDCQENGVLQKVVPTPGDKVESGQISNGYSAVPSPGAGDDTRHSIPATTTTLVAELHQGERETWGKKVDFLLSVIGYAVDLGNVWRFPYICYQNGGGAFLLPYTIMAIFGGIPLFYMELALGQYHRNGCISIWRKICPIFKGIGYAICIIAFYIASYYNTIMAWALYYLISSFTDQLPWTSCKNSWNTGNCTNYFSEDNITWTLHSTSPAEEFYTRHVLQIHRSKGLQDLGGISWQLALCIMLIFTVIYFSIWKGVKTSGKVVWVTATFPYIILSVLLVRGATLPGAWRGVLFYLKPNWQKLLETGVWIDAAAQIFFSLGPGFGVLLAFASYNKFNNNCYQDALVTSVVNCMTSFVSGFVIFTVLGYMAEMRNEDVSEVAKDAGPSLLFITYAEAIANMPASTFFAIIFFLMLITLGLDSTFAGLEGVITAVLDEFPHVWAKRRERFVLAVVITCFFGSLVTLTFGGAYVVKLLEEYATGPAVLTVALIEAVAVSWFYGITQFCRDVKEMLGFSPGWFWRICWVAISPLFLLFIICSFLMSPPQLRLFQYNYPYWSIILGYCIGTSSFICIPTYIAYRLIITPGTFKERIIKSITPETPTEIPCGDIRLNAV
Chain of D2 (P14416 1-414 isoform P14416-2): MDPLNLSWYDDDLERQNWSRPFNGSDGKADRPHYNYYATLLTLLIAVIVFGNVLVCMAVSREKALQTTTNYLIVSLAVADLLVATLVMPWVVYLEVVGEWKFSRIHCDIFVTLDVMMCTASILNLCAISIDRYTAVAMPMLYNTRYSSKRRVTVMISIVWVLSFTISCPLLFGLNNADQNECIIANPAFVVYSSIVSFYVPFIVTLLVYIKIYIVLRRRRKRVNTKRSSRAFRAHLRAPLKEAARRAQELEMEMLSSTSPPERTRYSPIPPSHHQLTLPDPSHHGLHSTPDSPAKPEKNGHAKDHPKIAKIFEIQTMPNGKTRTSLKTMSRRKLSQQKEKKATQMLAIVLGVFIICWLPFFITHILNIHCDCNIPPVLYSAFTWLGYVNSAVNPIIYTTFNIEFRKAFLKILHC

Q: `O=C1CN2c3c(cccc3[C@@H]3CN(CCCOc4ccc(F)cc4)CC[C@@H]32)N1` [Compound A, reference compound] was tested. Which Ki ([1]; read-out: Ki (nM) or maximum inhibition) did it give?
A: ≤ 600 nM

Q: Which “D2 affinity, in words” value [2] does the source give for `O=C1CN2c3c(cccc3[C@H]3CN(CCCOc4ccc(F)cc4)CC[C@H]32)N1` [Example 1, (6bS,10aR)-8-(3-(4-fluorophenoxy)propyl)-6b,7,8,9,10,10a-hexahydro-1H-pyrido[3′,4′:4,5]pyrrolo[1,2,3-de]quinoxalin-2(3H)-one] here?
A: weak D2 affinity

Q: What about the “D1 receptor binding, in words” value [3] of the same compound?
A: moderately strong D1 receptor binding

Q: And the “SERT activity, in words” value ([1]; qualitative statement)?
A: no SERT activity
